Patent US20250327028A1, “ENGINEERED PLATELETS AS TARGETED PROTEIN DEGRADERS” (Wisconsin Alumni Research Foundation, priority 2024, published 2025)

Tested on: HSP90
Assay: HAC-B-mediated HSP90 labeling, streptavidin-mediated immunoblot analysis
Format: cell-based, murine
Settings: 4T1 cells, 2 h
Protocol: Identification of HAC-B-mediated HSP90 labeling: Streptavidin-mediated immunoblot analysis: 4T1 cells were seeded in 6-well culture plates with a density of 5×10^4 cells in each well and cultured for 24 h. Following washing with PBS twice, the cells were treated with free HAC-B at the indicated concentrations for 2 h. Then, the cells were washed with PBS and lysed on ice with the RIPA buffer containing PMSF (1 mM) and the phosphatase inhibitor cocktail for 30 min. Next, the lysates were centrifuged at 10,000 g for 10 minutes at 4° C., and the corresponding supernatants were collected, followed by quantification of the total proteins in the supernatant through the BCA assay. Subsequently, the proteins in the supernatant were mixed with ¼ volume of 5× sample buffer formulated by Tris-HCl (pH 6.8, 312.5 mM), sucrose (25%), SDS (10%), bromophenol blue (0.025%), and DTT (250 mM). After incubation for 1 h at room temperature, equal amounts of proteins from different samples ([…]) were loaded into the 10% Bis-Tris gel. The separated proteins were transferred to PVDF membrane before the membranes were blocked with 5% nonfat milk in PBS-T. The PVDF membrane was incubated with streptavidin-HRP at room temperature for 2 h. […] Finally, the bands were treated with ECL western blot substrate and detected by the iBright™ imaging system.

## N#CCN(C(=O)CCCC[C@@H]1SC[C@@H]2NC(=O)N[C@@H]21)S(=O)(=O)c1ccc(C(=O)NCCCn2c(Sc3cc4c(cc3I)OCO4)nc3c(N)ncnc32)cc1 [HAC-B, N-(3-(6-amino-8-((6-iodobenzo[d][1,3]dioxol-5-yl)thio)-9H-purin-9-yl)propyl)-4-(N-(cyanomethyl)-N-(5-((3aS,4S,6aR)-2-oxohexahydro-1H-thieno[3,4-d]imidazol-4-yl)pentanoyl)sulfamoyl)benzamide]
  concentration that labels HSP90 with higher efficiency: over 0.8 μM
Various concentrations
  biotin labeling of HSP90 (detected by HRP-streptavidin): modified HSP90 within 2 h in a concentration-dependent manner
